From PMC9948168, “Vanillin-Based Indolin-2-one Derivative Bearing a Pyridyl Moiety as a Promising Anti-Breast Cancer Agent via Anti-Estrogenic Activity” (ACS Omega, 2023) come the findings set out here.

Common to all, as to test: NCI-60 one-dose screening
Holding throughout (type): cell-based

For assay [1], the system named is SK-OV-3. The settings on record: Homo sapiens, SK-OV-3, Ovarian Cancer, read-out: GI (%).
Assay [2] deals with 786-0. Conditions: Homo sapiens, 786-0, Renal Cancer, read-out: GI (%).
Assay [3] concerns NCI-H322M. Conditions: Homo sapiens, Non-Small Cell Lung Cancer, read-out: GI (%).
Assay [4] relates to A549/ATCC. Conditions: Homo sapiens, Non-Small Cell Lung Cancer, read-out: GI (%).
Assay [5] deals with SNB-75. Conditions: Homo sapiens, SNB-75, CNS Cancer, read-out: GI (%).
In assay [6] the test system is T-47D. The settings on record: Homo sapiens, T47D, Breast Cancer, read-out: GI (%).
The subject of assay [7] is HT29. Conditions: Homo sapiens, HT-29, HT29, Colon Cancer, read-out: GI (%).
Assay [8] deals with A498. Conditions: Homo sapiens, A498, Renal Cancer, read-out: GI (%).
For assay [9], the system named is SR. The settings on record: Homo sapiens, Leukemias, read-out: GI (%).
The test system of assay [10] is SK-MEL-2. The settings on record: Homo sapiens, SK-MEL-2, Melanoma, read-out: GI (%).
Assay [11] has as its system BT-549. Conditions: Homo sapiens, BT-549, Breast Cancer, read-out: GI (%).
In assay [12] the test system is UACC-62. The settings on record: Homo sapiens, UACC-62, Melanoma, read-out: GI (%).
Assay [13] relates to ACHN. The settings on record: Homo sapiens, Renal Cancer, read-out: GI (%).
Assay [14] has as its system COLO 205. The settings on record: Homo sapiens, COLO 205, Colon Cancer, read-out: GI (%).
Assay [15] has as its system MDA-MB-231/ATCC. The settings on record: Homo sapiens, Breast Cancer, read-out: GI (%).
In assay [16] the test system is HCT-116. Conditions: Homo sapiens, HCT-116, Colon Cancer, read-out: GI (%).
For assay [17], the system named is SW-620. Conditions: Homo sapiens, SW-620, Colon Cancer, read-out: GI (%).
The test system of assay [18] is HOP-62. The settings on record: Homo sapiens, HOP-62, Non-Small Cell Lung Cancer, read-out: GI (%).
Assay [19] deals with SF-539. The settings on record: Homo sapiens, SF-539, CNS Cancer, read-out: GI (%).
For assay [20], the system named is HOP-92. The settings on record: Homo sapiens, HOP-92, Non-Small Cell Lung Cancer, read-out: GI (%).
The test system of assay [21] is OVCAR-4. The settings on record: Homo sapiens, OVCAR-4, 10 μM; OVCAR-4, Ovarian Cancer; read-out: GI (%).
Assay [22] concerns SF-295. The settings on record: Homo sapiens, SF-295, CNS Cancer, read-out: GI (%).

Take `COc1ccc(COc2ccc(/C=C3/C(=O)Nc4cc(Cl)ccc43)cc2OC)cc1` [6n]: the inhibition at 10 µM was -7.5% in [1]; -6.9% in assay [2]; 3.24% in assay [3]; -12.9% in assay [4]; -12.8% in assay [5]; 12.8% in [6]. Besides, the inhibition at 10 µM in assay [7] was -0.76%; in [8], 6.39%; in [9], 0.64%; in [10], -0.29%; in assay [11], 0.06%; in [12], 12.2%. Moreover, the inhibition at 10 µM in assay [13] was 5.82%; in assay [14], -11.1%; in [15], 5.7%; in assay [16], 11.1%; in assay [17], 3.63%; in assay [18], 4.49%. Moreover, the inhibition at 10 µM in assay [19] was 9.72%; in [20] it was -8.09%; in [21], 17.6%; in [22], -2.14%.
Regarding `COc1cc(/C=C2/C(=O)Nc3cc(Cl)ccc32)ccc1OCc1ccccc1` [6k], the inhibition at 10 µM in assay [1] was -10.9%; in [2] it was -8.46%; in [3], 0.99%; in assay [4], -8.61%; in assay [5] it was 3.2%; in [6], -0.39%. In addition, the inhibition at 10 µM was -1.24% in [7]; -15.1% in assay [8]; 6.78% in assay [9]; -5.05% in assay [10]; 16.8% in assay [11]; 6.07% in [12]. Also, the inhibition at 10 µM in [13] is 7.71%; in [14], -16.6%; in [15] it was 8.09%; in assay [16], -2.15%; in [17], 2.54%; in assay [18], 0.16%. Also, the inhibition at 10 µM is 5.85% in [19], 4.54% in [20], 10.4% in assay [21] and -1.02% in [22].
Take `COc1ccc(COc2ccc(/C=C3/C(=O)Nc4ccccc43)cc2OC)cc1` [6d]: the inhibition at 10 µM in [1] is -19.1%; in assay [2], -4.67%; in [3], -5.76%; in [4], -9.19%; in assay [5] it was 2.65%; in assay [6] it was -12.8%. Further, the inhibition at 10 µM in assay [7] is -7.81%; in assay [8], -10.3%; in assay [9] it was -1.92%; in assay [10], -8.22%; in assay [11] it was 7.88%; in assay [12], 3.29%. In addition, the inhibition at 10 µM is 7.61% in [13]; -22.9% in [14]; 0.09% in assay [15]; -8.46% in assay [16]; 0.87% in assay [17]; -0.03% in assay [18]. The inhibition at 10 µM was 4.08% in assay [19], -1% in assay [20], 0.17% in [21] and -3.32% in assay [22].
In the case of `COc1cc(/C=C2/C(=O)Nc3ccccc32)ccc1OCc1ccc(Cl)cc1` [6b], the inhibition at 10 µM in [1] was -10.5%; in [2], -6.18%; in [3], 0.35%; in assay [4], -7.18%; in [5], -3.58%; in assay [6], -6.94%. For the same compound, the inhibition at 10 µM in assay [7] was -8.68%; in assay [8], -15.1%; in assay [9], 6.17%; in assay [10], -5.45%; in assay [11] it was -9.1%; in assay [12], 12.4%. Besides, the inhibition at 10 µM in assay [13] was 7.31%; in assay [14] it was -16.1%; in [15] it was 1%; in assay [16], 13.1%; in assay [17], 3.4%; in assay [18], -0.91%. The inhibition at 10 µM in assay [19] is 1.99%; in [20], -12.5%; in [21] it was 0.89%; in [22], -2.92%.
Turning to `COc1cc(C=C2C(=O)Nc3ccccc32)ccc1OCc1ccccc1` (mixture of isomers) [6a], the inhibition at 10 µM is -10.3% in assay [1]; -0.73% in assay [2]; 5.18% in assay [3]; -9.96% in [4]; -0.57% in assay [5]; -13% in assay [6]. The inhibition at 10 µM is -2.25% in [7]; -0.19% in [8]; 14.6% in assay [9]; -10.6% in assay [10]; 1.2% in assay [11]; 7.55% in [12]. Besides, the inhibition at 10 µM in [13] was 6.95%; in assay [14], -17.8%; in [15], 5.3%; in [16], 10.3%; in assay [17], 9.55%; in assay [18], -3.56%. The inhibition at 10 µM is 0.76% in [19], 4.67% in assay [20], 3.22% in assay [21] and -1.61% in assay [22].
Take `COc1cc(C=C2C(=O)Nc3ccccc32)ccc1OCc1ccccn1` (mixture of isomers) [6e]: the inhibition at 10 µM is -2% in [1]; 1.32% in assay [2]; 8.2% in assay [3]; -7.19% in [4]; -6.42% in assay [5]; 15.8% in assay [6]. Moreover, the inhibition at 10 µM in [7] was 1.19%; in assay [8], 22.2%; in assay [9], 21.7%; in [10], -1.21%; in assay [11], -6.45%; in assay [12] it was 11.6%. In addition, the inhibition at 10 µM is 9.08% in assay [13]; -16% in assay [14]; 18.1% in assay [15]; 3.95% in assay [16]; -0.45% in [17]; 7.92% in [18]. Further, the inhibition at 10 µM in assay [19] worked out at 15.1%; in assay [20], 28.1%; in [21], 8.74%; in [22], 4.7%.
Turning to `COc1cc(/C=C2/C(=O)Nc3cc(Cl)ccc32)ccc1OCc1ccccn1` [6o], the inhibition at 10 µM in [1] was -7.09%; in assay [2], -11.2%; in assay [3], 0.51%; in assay [4] it was -15.6%; in [5], -0.58%; in assay [6] it was 0.18%. In addition, the inhibition at 10 µM in [7] was -15.4%; in [8], -7.62%; in assay [9], 6.43%; in assay [10], -8.06%; in assay [11], 3.31%; in assay [12], 6.45%. The inhibition at 10 µM was 5.07% in [13]; -18.8% in assay [14]; 13.4% in assay [15]; 2.05% in [16]; 0.42% in [17]; 3.58% in assay [18]. Besides, the inhibition at 10 µM in assay [19] is 4.76%; in assay [20], -5.39%; in assay [21] it was 3.45%; in [22] it was -1.12%.
